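Results reflect a 48-hour exposure of cells in 96-well plates to compound at five concentrations. GI50 = concentration required for 50% inhibition of growth. Definition used: TGI = concentration required for complete inhibition of growth.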
Assays:
Assay in all cases: NCI-60 cell line screen, 48 h
DU-145 prostate = system: DU-145 prostate
UO-31 renal = system: UO-31 renal
SK-MEL-28 melanoma = system: SK-MEL-28 melanoma
NCI-H460 lung = system: NCI-H460 lung
NCI/ADR-RES ovarian = system: NCI/ADR-RES ovarian
786-0 renal = system: 786-0 renal
SF-295 CNS = system: SF-295 CNS
PC-3 prostate = system: PC-3 prostate
MDA-MB-231 breast = system: MDA-MB-231 breast
LOX IMVI melanoma = system: LOX IMVI melanoma
SK-MEL-5 melanoma = system: SK-MEL-5 melanoma
HT29 colon = system: HT29 colon
CCRF-CEM leukemia = system: CCRF-CEM leukemia
UACC-62 melanoma = system: UACC-62 melanoma
KM12 colon = system: KM12 colon
HOP-92 NSCLC = system: HOP-92 NSCLC
OVCAR-5 ovarian = system: OVCAR-5 ovarian
HCT-15 colon = system: HCT-15 colon
SNB-19 CNS = system: SNB-19 CNS
SF-539 CNS = system: SF-539 CNS
U251 CNS = system: U251 CNS
MDA-MB-435 = system: MDA-MB-435
T-47D breast = system: T-47D breast
A549 NSCLC = system: A549 NSCLC
MOLT-4 leukemia = system: MOLT-4 leukemia
SW-620 colon = system: SW-620 colon
TK-10 renal = system: TK-10 renal
SN12C renal = system: SN12C renal

Clc1ccc2nc(Cl)c3ccccc3c2c1
GI50 (DU-145 prostate): 58.5 µM
TGI (DU-145 prostate): > 100 µM
GI50 (UO-31 renal): 3.82 µM
TGI (UO-31 renal): 38.1 µM
GI50 (SK-MEL-28 melanoma): > 100 µM
TGI (SK-MEL-28 melanoma): > 100 µM
GI50 (NCI-H460 lung): 3.29 µM
TGI (NCI-H460 lung): 11.8 µM
GI50 (NCI/ADR-RES ovarian): 17.8 µM
TGI (NCI/ADR-RES ovarian): > 100 µM
GI50 (786-0 renal): 9.32 µM
TGI (786-0 renal): 60.8 µM
GI50 (SF-295 CNS): 10.5 µM
TGI (SF-295 CNS): 35.7 µM
GI50 (PC-3 prostate): > 100 µM
TGI (PC-3 prostate): > 100 µM
GI50 (MDA-MB-231 breast): 7.27 µM
TGI (MDA-MB-231 breast): 33.2 µM
GI50 (LOX IMVI melanoma): 20.9 µM
TGI (LOX IMVI melanoma): > 100 µM
GI50 (SK-MEL-5 melanoma): > 100 µM
TGI (SK-MEL-5 melanoma): > 100 µM
GI50 (HT29 colon): 19.9 µM
TGI (HT29 colon): > 100 µM
GI50 (CCRF-CEM leukemia): 20.6 µM
TGI (CCRF-CEM leukemia): 52.9 µM
GI50 (UACC-62 melanoma): 44.1 µM
TGI (UACC-62 melanoma): > 100 µM
GI50 (KM12 colon): 15.4 µM
TGI (KM12 colon): > 100 µM
GI50 (HOP-92 NSCLC): 11.9 µM
TGI (HOP-92 NSCLC): 29.7 µM
GI50 (OVCAR-5 ovarian): 22.1 µM
TGI (OVCAR-5 ovarian): > 100 µM
GI50 (HCT-15 colon): > 100 µM
TGI (HCT-15 colon): > 100 µM
GI50 (SNB-19 CNS): 9.26 µM
TGI (SNB-19 CNS): 40.2 µM
GI50 (SF-539 CNS): 12 µM
TGI (SF-539 CNS): 42 µM
GI50 (U251 CNS): 3.21 µM
TGI (U251 CNS): 19.9 µM
GI50 (MDA-MB-435): 23.6 µM
TGI (MDA-MB-435): > 100 µM
GI50 (T-47D breast): 4.02 µM
TGI (T-47D breast): > 100 µM
GI50 (A549 NSCLC): 5.92 µM
TGI (A549 NSCLC): > 100 µM
GI50 (MOLT-4 leukemia): > 100 µM
TGI (MOLT-4 leukemia): > 100 µM
GI50 (SW-620 colon): > 100 µM
TGI (SW-620 colon): > 100 µM
GI50 (TK-10 renal): 4.96 µM
TGI (TK-10 renal): 31.8 µM
GI50 (SN12C renal): 28 µM
TGI (SN12C renal): > 100 µM
